In the assay the test system is BDF1 mice, P1081 chloroleukemia ip, survival T/C. Put plainly: NCI In Vivo Anticancer Drug Screen. Data for tumor model P1081 Chloroleukemia (intraperitoneal) in B6D2F1 (BDF1) mice. Conditions: endpoint: mean survival time, higher = longer survival. The method, then:
The antitumor activity of compounds was measured in mice bearing transplantable tumors. Survival or tumor size were measured and the results are expressed as the measurement made in the treated group (T) divided by the measurement made in the vehicle treated control group (C). The tumor model used in this assay is P1081 Chloroleukemia (intraperitoneal) in B6D2F1 (BDF1) mice

[1] abbreviates: dose: 6.25 mg/kg/injection, schedule: Q01DX Z (ip), vehicle: carboxymethylcellulose (CMC).
Setting [2] is: dose: 12.5 mg/kg/injection, schedule: Q01DX Z (ip), vehicle: carboxymethylcellulose (CMC).
Where [3] appears, read: dose: 25.0 mg/kg/injection, schedule: Q01DX Z (ip), vehicle: carboxymethylcellulose (CMC).
Where [4] appears, read: dose: 50.0 mg/kg/injection, schedule: Q01DX Z (ip), vehicle: carboxymethylcellulose (CMC).
[5] abbreviates: dose: 2.5 mg/kg/injection, schedule: Q01DX Z (ip), vehicle: carboxymethylcellulose (CMC).
Where [6] appears, read: dose: 5.0 mg/kg/injection, schedule: Q01DX Z (ip), vehicle: carboxymethylcellulose (CMC).
The mark [7] stands for this setting: dose: 20.0 mg/kg/injection, schedule: Q01DX010 (ip), vehicle: saline.

Values joined by “and” are separate entries in the source; they are usually repeats but may differ in a detail not shown here. Identical values can stand only once. Inconclusive results and toxic doses are left out.

On to `CN(N=O)C(=O)NC(C=O)C(O)C(O)C(O)CO` (stereo not given), for which the T/C was 93 % of control under setting [1]; 102 % of control under setting [2]; 112 % of control under setting [3]; 100 % of control under setting [4]; 115 % of control (dose: 50.0 mg/kg/injection, schedule: Q01DX Z (ip), vehicle: saline); 107 % of control (dose: 100.0 mg/kg/injection, schedule: Q01DX Z (ip), vehicle: saline). Also, for the setting “dose: 200.0 mg/kg/injection, schedule: Q01DX Z (ip), vehicle: saline”, the T/C was 88 % of control.

In the case of `Cc1cc2nc3c(=O)[nH]c(=O)nc-3n(CC(O)C(O)C(O)C(O)CO)c2cc1C` (stereo not given), the T/C runs as follows: (dose: 50.0 mg/kg/injection, schedule: Q01DX010 (ip), vehicle: saline) 88 % of control and 100 % of control; (dose: 100.0 mg/kg/injection, schedule: Q01DX010 (ip), vehicle: saline) 88 % of control and 90 % of control; (dose: 200.0 mg/kg/injection, schedule: Q01DX010 (ip), vehicle: saline) 90 % of control and 100 % of control; (dose: 400.0 mg/kg/injection, schedule: Q01DX010 (ip), vehicle: saline) 100 % of control.

Regarding `CN(C)CC(=O)c1ccc(O)c(O)c1`, the T/C by setting is: (dose: 16.0 mg/kg/injection, schedule: Q01DX Z (ip), vehicle: saline) 114 % of control; (dose: 31.0 mg/kg/injection, schedule: Q01DX Z (ip), vehicle: saline) 112 % of control; (dose: 62.0 mg/kg/injection, schedule: Q01DX Z (ip), vehicle: saline) 118 % of control; (dose: 125.0 mg/kg/injection, schedule: Q01DX Z (ip), vehicle: saline) 115 % of control.

Take `CN(C)c1ccc(Nc2c3ccccc3nc3ccccc23)cc1`: the T/C was 101 % of control under setting [1]; 88 % of control under setting [2]; 90 % of control under setting [3]; 104 % of control (dose: 36.0 mg/kg/injection, schedule: Q01DX010 (ip), vehicle: saline); 95 % of control under setting [4]; 103 % of control (dose: 100.0 mg/kg/injection, schedule: Q01DX Z (ip), vehicle: carboxymethylcellulose (CMC)).

On to `COC12C(COC(N)=O)C3=C(C(=O)C(C)=C(N)C3=O)N1CC1C2N1C` (stereo not given), for which the T/C by setting is: (dose: 0.63 mg/kg/injection, schedule: Q01DX Z (ip), vehicle: carboxymethylcellulose (CMC)) 123 % of control; (dose: 1.25 mg/kg/injection, schedule: Q01DX Z (ip), vehicle: carboxymethylcellulose (CMC)) 107 % of control; under setting [5], 112 % of control; under setting [6], 152 % of control.

As to `CC1CCOS(=O)O1` (stereo not given), the T/C is 101 % of control under setting [5]; 115 % of control under setting [6]; 115 % of control (dose: 10.0 mg/kg/injection, schedule: Q01DX010 (ip), vehicle: saline); 86 % of control (dose: 10.0 mg/kg/injection, schedule: Q01DX Z (ip), vehicle: carboxymethylcellulose (CMC)); 110 % of control under setting [7]; 95 % of control (dose: 40.0 mg/kg/injection, schedule: Q01DX010 (ip), vehicle: saline).

With `C[C@H](N)C(=O)N[C@@H]1[C@H]2C(=C(O)C[C@@H](O)[C@@H]2O)C(=O)O[C@@H]1C`, the T/C is 124 % of control (dose: 93.8 mg/kg/injection, schedule: Q01DX Z (ip), vehicle: saline); 150 % of control (dose: 187.5 mg/kg/injection, schedule: Q01DX Z (ip), vehicle: saline); 161 % of control (dose: 250.0 mg/kg/injection, schedule: Q01DX Z (ip), vehicle: saline); 175 % of control (dose: 375.0 mg/kg/injection, schedule: Q01DX Z (ip), vehicle: saline); 153 % of control (dose: 500.0 mg/kg/injection, schedule: Q01DX Z (ip), vehicle: saline); 119 % of control (dose: 1000.0 mg/kg/injection, schedule: Q01DX Z (ip), vehicle: saline).

Take `CC[n+]1c(-c2ccccc2)c2cc(N)ccc2c2ccc(N)cc21`: the T/C reads like this: (dose: 2.5 mg/kg/injection, schedule: Q01DX010 (ip), vehicle: saline) 165 % of control and 222 % of control; (dose: 5.0 mg/kg/injection, schedule: Q01DX010 (ip), vehicle: saline) 190 % of control and 333 % of control; under setting [7], 100 % of control.

The values are drawn from PubChem BioAssay AID246 (DTP/NCI, 2004).
